One assay addresses T1, Human GPR119 (Homo sapiens, UniProt Q8TDV5).
T1 construct: host or cells: HEK293 (ATCC)
T1 sequence (Q8TDV5 1-335): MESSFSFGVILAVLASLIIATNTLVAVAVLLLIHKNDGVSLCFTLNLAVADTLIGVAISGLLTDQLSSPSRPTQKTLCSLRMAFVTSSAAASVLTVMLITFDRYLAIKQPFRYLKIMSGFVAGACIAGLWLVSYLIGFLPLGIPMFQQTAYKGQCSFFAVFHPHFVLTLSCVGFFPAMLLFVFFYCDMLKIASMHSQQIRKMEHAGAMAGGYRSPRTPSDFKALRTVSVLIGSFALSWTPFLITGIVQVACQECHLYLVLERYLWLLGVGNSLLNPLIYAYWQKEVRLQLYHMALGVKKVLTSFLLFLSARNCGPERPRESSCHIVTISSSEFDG
As to the kind of experiment: Human GPR119 activation assay (cAMP, HTRF). It counts as cell-based. The settings on record: 1 h, HEK293 cells transiently expressing human GPR119, relative to maximum effect of OEA, read-out: hGPR119 activation ability (cAMP assay) Relative Response % vs OEA; for Emax at 0.001 µM: 1 nM; for Emax at 0.01 µM: 10 nM. An excerpt: <Experimental Example 1>Human GPR119 activation assay
Human GPR119 was temporarily expressed on cells, thereby quantifying the amount of cyclic adenosine 3′,5′-monophosphate (cAMP) increased upon activating GPR119 by the compound of the present invention, using the product from Cysbio, by a method of HTRF (homogeneous time resolved fluorescence), and such quantification was used to refer to efficacy on GPR119 activation.
Human GPR119 expression vector (Origene) was overexpressed in […] renal epithelial cells (HEK293) (ATCC), and the cells were stabilized for 48 hours. With a solution of 11.1 mM glucose, 0.1% bovine serum albumin, and 0.5 mM IBMX (3-isobutyl-1-methylxanthine) which is a phosphodiesterase inhibitor being added to a KRBH (Krebs-Ringer Bicarbonate HEPES; Hou ZQ. et al., Mol Cell Endocrinol, 2008(291):71-78) buffer, the cells were pre-treated for 10 minutes. Thereafter, the cells were treated with the same solution containing a drug for 60 minutes, then the supernatant was removed, and the increase in cAMP in cells was quantified using a Cysbio cAMP HiRange kit.
As to the maximum efficacy of compounds tested, multiple concentration assessment for the compounds of the present invention was carried out, thereby assessing the relative activation level (%) to the maximum effect of oleoylethanolamide (OEA), an endogenous ligand of GPR119.

The subject of a further assay is C57BL/6 mouse. As to the kind of experiment: Assessment of glucose tolerance improvement effect in mouse. The settings on record: 2 h; 10 mg/kg oral, 30 min before oral glucose 2 g/kg; male C57BL/6 mouse; blood glucose AUC. It counts as in vivo. As for the experimental part: <Experimental Example 2>Assessment of glucose tolerance improvement effect in mouse
As one of anti-diabetic effect indicators, the glucose tolerance improvement effect of the above compounds was evaluated in 7-week male laboratory mouse (C57BL/6 mouse), as the effect of improving postprandial glycemic control ability.
The laboratory mouse was fasted from the day before the experiment for 16-17 hours. The compound of the present invention was orally administered 30 minutes before administrating glucose, and after 30 minutes, a glucose solution (2 g/kg/10 ml) was orally administered. A drug was prepared by suspending in a 10% Gelucire solution. At the times immediately before drug administration, immediately before glucose solution administration, 15 minutes, 30 minutes, 60 minutes, 90 minutes, and 120 minutes after glucose administration, the whole blood glucose levels was measured from tail vein using a blood glucose meter (AccuChek Active, Roche Diagnostics), and the area under the curve of a temporal blood glucose curve was calculated. From the calculated area under the blood glucose curve, the area under the blood glucose curve of a negative control group to which no glucose solution was administered was subtracted, and inhibitory activity against blood glucose increase of a control group to which only the 10% Gelucire solution and glucose solution were administered was calculated as a percentage, thereby evaluating the glucose tolerance improvement efficacy of a drug.
The results are shown in Table 3, in which the glucose tolerance improvement effect represented at a dose of 10 mg/kg was represented by classifying into three groups, under 30%, more than 30% under 40%, and more than 40%. A significant glucose tolerance improvement effect was identified in 22 compounds on which the experiment was carried out, and among those compounds, 16 compounds represented an excellent in vivo activity of 30% inhibitory dose of 10 mg/kg or less. In the following Table 3, A represents an inhibitory activity more than 40%, B represents an inhibitory activity more than 30% under 40% and C represents an inhibitory activity under 30%.

As usually defined, the inhibition in vivo is the change of the read-out against control, counted positive when it falls.

Take `CCc1nnc(-c2c(F)cc(OCCCC3CCN(c4ncc(C(F)(F)F)cn4)CC3)cc2F)o1` [Example 47, 2-(2,6-difluoro-4-(3-(1-(5-(trifluoromethyl)pyrimidin-2-yl)piperidin-4-yl)propoxy)phenyl)-5-ethyl-1,3,4-oxadiazole]: on Human GPR119, the Emax at 0.001 µM came out at 66% and the Emax at 0.01 µM was 218%. Also, the inhibition in vivo at 10 mg/kg with C57BL/6 mouse was > 40%.
Consider `CC(C)c1noc(N2CCC(CCCOc3cc(F)c(C4=NC[C@H](C)O4)c(F)c3)CC2)n1` [Example 11, (S)-5-(4-(3-(3,5-difluoro-4-(5-methyl-4,5-dihydrooxazol-2-yl)phenoxy)propyl)piperidin-1-yl)-3-isopropyl-1,2,4-oxadiazole], for which, on Human GPR119, the Emax at 0.001 µM turned out to be 184% and the Emax at 0.01 µM amounted to 266%. Besides, the inhibition in vivo at 10 mg/kg in the assay with C57BL/6 mouse was < 30%.
Turning to `CCc1cnc(N2CCC(CCCOc3cc(F)c(C4=NC[C@H](C)O4)c(F)c3)CC2)nc1` [Example 4, (S)-2-(4-(3-(1-(5-ethylpyrimidin-2-yl)piperidin-4-yl)propoxy)-2,6-difluorophenyl)-5-methyl-4,5-dihydrooxazole], at Human GPR119, the Emax at 0.001 µM worked out at 79.6% and the Emax at 0.01 µM came to 167%. Besides, the inhibition in vivo at 10 mg/kg in the assay with C57BL/6 mouse was < 30%.
For `CC(C)c1nc(-c2c(F)cc(OCCCC3CCN(c4ccc(C(F)(F)F)cn4)CC3)cc2F)no1` [Example 38, 3-(2,6-difluoro-4-(3-(1-(5-(trifluoromethyl)pyridin-2-yl)piperidin-4-yl)propoxy)phenyl)-5-isopropyl-1,2,4-oxadiazole], on Human GPR119, the Emax at 0.001 µM was 102% and the Emax at 0.01 µM was determined as 120%. The inhibition in vivo at 10 mg/kg in the assay with C57BL/6 mouse was < 30%.
Take `CCc1cnc(N2CCC(CCCOc3cc(F)c(C4=NC[C@H](CO)O4)c(F)c3)CC2)nc1` [Example 7, (R)-(2-(4-(3-(1-(5-ethylpyrimidin-2-yl)piperidin-4-yl)propoxy)-2,6-difluorophenyl)-4,5-dihydrooxazol-5-yl)methanol]: at Human GPR119, the Emax at 0.001 µM is 51.3% and the Emax at 0.01 µM came to 170%. Besides, the inhibition in vivo at 10 mg/kg in the assay on C57BL/6 mouse is < 30%.
Regarding `CC(C)c1nnc(-c2c(F)cc(OCCCC3CCN(c4cnc(Cl)cn4)CC3)cc2F)o1` [Example 51, 2-(4-(3-(1-(5-chloropyrazin-2-yl)piperidin-4-yl)propoxy)-2,6-difluorophenyl)-5-isopropyl-1,3,4-oxadiazole], on Human GPR119, the Emax at 0.001 µM was determined as 90.7% and the Emax at 0.01 µM came to 180%. The inhibition in vivo at 10 mg/kg with C57BL/6 mouse is > 40%.
`CC(C)c1noc(N2CCC(CCCOc3cc(F)c(-c4noc(C(C)C)n4)c(F)c3)CC2)n1` [Example 40, 3-(2,6-difluoro-4-(3-(1-(3-isopropyl-1,2,4-oxadiazol-5-yl)piperidin-4-yl)propoxy)phenyl)-5-isopropyl-1,2,4-oxadiazole]: on Human GPR119, the Emax at 0.001 µM worked out at 63.7% and the Emax at 0.01 µM was 206%. This compound also showed an inhibition in vivo at 10 mg/kg in the assay on C57BL/6 mouse of 30 to 40%.
On to `CCc1cnc(N2CCC(CCCOc3cc(F)c(-c4noc(C(C)(C)CO)n4)c(F)c3)CC2)nc1` [Example 22, 2-(3-(4-(3-(1-(5-ethylpyrimidin-2-yl)piperidin-4-yl)propoxy)-2,6-difluorophenyl)-1,2,4-oxadiazol-5-yl)-2-methylpropan-1-ol], for which, at Human GPR119, the Emax at 0.001 µM turned out to be 54.9% and the Emax at 0.01 µM amounted to 178%. This compound displayed an inhibition in vivo at 10 mg/kg with C57BL/6 mouse of 30 to 40%.
On the same counts, the results for `CC(C)c1noc(N2CCC(CCCOc3cc(F)c(C4=NCC(C)(C)O4)c(F)c3)CC2)n1` [Example 12, 5-(4-(3-(4-(5,5-dimethyl-4,5-dihydrooxazol-2-yl)-3,5-difluorophenoxy)propyl)piperidin-1-yl)-3-isopropyl-1,2,4-oxadiazole] are 116%, 232% and > 40%.
For `CC(C)c1nc(-c2c(F)cc(OCCCC3CCN(c4ncc(Cl)cn4)CC3)cc2F)no1` [Example 28, 3-(4-(3-(1-(5-chloropyrimidin-2-yl)piperidin-4-yl)propoxy)-2,6-difluorophenyl)-5-isopropyl-1,2,4-oxadiazole], in that order: 23.8%, 115% and < 30%.
For the compound `CCc1cnc(N2CCC(CCCOc3cc(F)c(-c4noc([C@@H](O)CC)n4)c(F)c3)CC2)nc1` [Example 19, (S)-1-(3-(4-(3-(1-(5-ethylpyrimidin-2-yl)piperidin-4-yl)propoxy)-2,6-difluorophenyl)-1,2,4-oxadiazol-5-yl) propan-1-ol], at Human GPR119, the Emax at 0.001 µM amounted to 46.5% and the Emax at 0.01 µM is 313%. Further, the inhibition in vivo at 10 mg/kg in the assay with C57BL/6 mouse lay within 30 to 40%.
On the same counts, the results for `CCc1cnc(N2CCC(CCCOc3cc(F)c(C4=NC[C@@H](C)O4)c(F)c3)CC2)nc1` [Example 5, (R)-2-(4-(3-(1-(5-ethylpyrimidin-2-yl)piperidin-4-yl)propoxy)-2,6-difluorophenyl)-5-methyl-4,5-dihydrooxazole] are 44.6%, 150% and > 40%.
Take `CCc1cnc(N2CCC(CCCOc3cc(F)c(-c4nnc(C)o4)c(F)c3)CC2)nc1` [Example 42, 2-(4-(3-(1-(5-ethylpyrimidin-2-yl)piperidin-4-yl)propoxy)-2,6-difluorophenyl)-5-methyl-1,3,4-oxadiazole]: on Human GPR119, the Emax at 0.001 µM came to 127% and the Emax at 0.01 µM came to 150%. In addition, the inhibition in vivo at 10 mg/kg in the assay with C57BL/6 mouse is > 40%.
Take `Cc1nnc(-c2c(F)cc(OCCCC3CCN(c4nc(C(C)C)no4)CC3)cc2F)o1` [Example 55, 5-(4-(3-(3,5-difluoro-4-(5-methyl-1,3,4-oxadiazol-2-yl)phenoxy)propyl)piperidin-1-yl)-3-isopropyl-1,2,4-oxadiazole]: on Human GPR119, the Emax at 0.001 µM was 168% and the Emax at 0.01 µM stood at 266%. The same compound showed an inhibition in vivo at 10 mg/kg with C57BL/6 mouse of 30 to 40%.
For `CC(C)c1nc(-c2c(F)cc(OCCCC3CCN(c4ncc(C(F)(F)F)cn4)CC3)cc2F)no1` [Example 25, 3-(2,6-difluoro-4-(3-(1-(5-(trifluoromethyl)pyrimidin-2-yl)piperidin-4-yl)propoxy)phenyl)-5-isopropyl-1,2,4-oxadiazole], in that order: 159%, 274% and < 30%.
Take `CCc1cnc(N2CCC(CCCOc3cc(F)c(-c4noc(C)n4)c(F)c3)CC2)nc1` [Example 13, 3-(4-(3-(1-(5-ethylpyrimidin-2-yl)piperidin-4-yl)propoxy)-2,6-difluorophenyl)-5-methyl-1,2,4-oxadiazole]: at Human GPR119, the Emax at 0.001 µM is 49.4% and the Emax at 0.01 µM was determined as 126%. This compound displayed an inhibition in vivo at 10 mg/kg with C57BL/6 mouse of 30 to 40%.
Turning to `CCCc1cnc(N2CCC(CCCOc3cc(F)c(-c4noc(C(C)C)n4)c(F)c3)CC2)nc1` [Example 23, 3-(2,6-difluoro-4-(3-(1-(5-propylpyrimidin-2-yl)piperidin-4-yl)propoxy)phenyl)-5-isopropyl-1,2,4-oxadiazole], at Human GPR119, the Emax at 0.001 µM stood at 78.3% and the Emax at 0.01 µM came out at 141%. In addition, the inhibition in vivo at 10 mg/kg with C57BL/6 mouse is > 40%.

The values above are taken from patent US10428055B2, “Substituted piperidines having GPR119 agonistic activity” (DONG-A ST CO., LTD., priority 2014, dated 2019).
